# According to patent US20110245148A1, “ACETIC ACID AND A BUFFER” (priority 2008, published 2011):
# Where a name gives a salt, the structure may show the parent alone. Read-outs that look alike come from different tables or passages of the source.
# Assays:
# [1] = system: S. aureus biofilms; conditions: for eradication of mature biofilm (viability on LB plates): 24 hours
# Source text: (§1) The wild-type P. aeruginosa PAO1 used for the planktonic and biofilm experiments was obtained from the Pseudomonas Genetic Stock Center (www.pseudomonas.med.ecu.edu, strain PAO0001). The wild-type S. aureus 8325-4, used for planktonic and biofilm experiments was described by Novick, R. P. 1967. For plating, Luria broth (LB) medium mix with 2.0% agar was used. For all experiments including bacterial biofilms, AB minimal medium supplemented with glucose was used except if different is mentioned. […] The continuous flow system is based on once through flow chambers perfused with sterile AB minimal medium containing 0.3 mM glucose as described by Christensen et al. (1999). Continuous flow biofilm tolerance to acetic acid was assessed by growing P. aeruginosa or S. aureus biofilms for three days, then subsequently at day three to four supplementing the AB minimal medium with different concentrations of acetic acid or HCl (HCL served as a as control to acetic acid treatments). […] Due to the buffer capacity of the AB minimal medium used, the pH of the solution became 4.33. […] After the treatment the biofilm biomasses were harvested mechanically from the flow chambers and plated on LB plates for determination of viability. […] The kinetics of antimicrobial activity against mature biofilms was tested by treating a 3-day-old continuous flow chamber biofilms of either P. aeruginosa with 0.5% or S. aureus with 1.0% acetic acid for 24 hours. Due to the buffer capacity of the AB minimal medium used the pH of the solution became 4.33. […] After the treatment the biofilms were harvested mechanically, by scraping with a sterile scalpel, from the flow chambers and plated on LB plates for determination of viable counts.
# [2] = system: clinical non-mucoid P. aeruginosa isolate; conditions: 0.5% acetic acid, pH below 4.76
# Procedure: (§2) The static biofilm setup is based on biofilms growing in microtiter dishes with AB minimal medium containing 0.3 mM glucose as described by O'toole et al (1999). Planktonic cultures were grown in shake flasks at 37° C.
# (§3) Static biofilm tolerance to acetic acid was assessed by exchanging the AB minimal medium of 24 h old biofilms with AB minimal medium supplemented with different concentrations of acetic acid or HCl as control. To raise the pH of either acetic acid or HCl, NaOH was added in different concentrations.
# (§4) To elucidate a synergistic antimicrobial effect of acetic acid and antibiotics, static biofilms of P. aeruginosa were grown for 24 hours prior to subsequent treatment with increasing concentrations of tobramycin and 0.5% acetic acid in the pH interval 3-6.85. The pH was adjusted by supplementing the AB minimal medium with either HCl or NaOH.
# [3] = system: clinical mucoid P. aeruginosa isolate; conditions: 0.5% acetic acid, pH below 4.76
# Procedure: as §2, §3, §4
# [4] = system: static P. aeruginosa biofilms; experiment: static 24 hour old biofilm in microtiter dishes, CFU after treatment; assay type: cell-based; conditions: for antimicrobial effect on biofilm (CFU): 0.5% acetic acid
# Source text: AB minimal medium without acetic acid adjusted to different pH values was used as control.
# AB minimal medium supplemented with increasing concentrations of tobramycin served as control. The biofilm were harvested and plated on LB plates to determine the CFU after treatment (For visual appearance “no growth” is arbitrarily given a CFU value of 2).
# AB minimal medium without acetic acid, but supplemented with increasing concentrations of tobramycin served as control.
# The wild-type P. aeruginosa PAO1 used for the planktonic and biofilm experiments was obtained from the Pseudomonas Genetic Stock Center (www.pseudomonas.med.ecu.edu, strain PAO0001). The wild-type S. aureus 8325-4, used for planktonic and biofilm experiments was described by Novick, R. P. 1967.
# For plating, Luria broth (LB) medium mix with 2.0% agar was used. For all experiments including bacterial biofilms, AB minimal medium supplemented with glucose was used except if different is mentioned.
# as §2, §3, §4
# [5] = system: P. aeruginosa biofilms; experiment: continuous flow chamber biofilm, 3-day-old, harvested and plated for viability; assay type: cell-based, P. aeruginosa PAO1; conditions: for eradication of mature biofilm (viability on LB plates): 24 hours
# Source text: as §1
# [6] = 0.5% acetic acid, AB minimal medium, pH 4.33
# [7] = 1.0% acetic acid, AB minimal medium, pH 4.33
smiles,measurement,setting,value
CC(=O)O [acetic acid],eradication of mature biofilm (viability on LB plates),[1]; [6],reduced the number of viable cells
same,eradication of mature biofilm,[1]; 1.0% acetic acid in sterile miliQ water,Complete eradication
same,eradication of mature biofilm (viability on LB plates),[1]; [7],complete eradication
same,time to complete killing of all bacteria,[1]; [7],3 h
same,eradication of biofilm (CFU),[2],eradicates the biofilms
same,eradication of biofilm (CFU),[3],eradicates the biofilms
same,effect of acetic acid alone on biofilm,[4],decreasing
same,antibacterial effect on biofilm (CFU),"[4]; 0.5% acetic acid alone, pH 6.85",no antibacterial effect
same,antimicrobial effect on biofilm (CFU),[4]; pH 5,reduced effect
same,antimicrobial effect on biofilm (CFU),[4]; pH 5.5 and above,no effect
same,antimicrobial effect on biofilm (CFU),[4]; pH interval 3-4.76,eradicated biofilms
same,eradication of mature biofilm,[5]; 0.5% acetic acid in sterile miliQ water,Complete eradication
same,eradication of mature biofilm (viability on LB plates),[5]; [6],completely eradicated
same,time to complete killing of all bacteria,[5]; [6],3 h
same,eradication of mature biofilm (viability on LB plates),[5]; [7],completely eradicated
"NC[C@H]1O[C@H](O[C@H]2[C@H](O)[C@@H](O[C@H]3O[C@H](CO)[C@@H](O)[C@H](N)[C@H]3O)[C@H](N)C[C@@H]2N)[C@H](N)C[C@@H]1O [Tobramycin, tobramycin, reference compound]",reduction of bacterial viability,[4]; tobramycin alone at concentrations above 12.5 μg/ml,5 fold
"Cl [HCl, reference compound]",eradication of mature biofilm (viability on LB plates),[5]; AB minimal medium adjusted to pH 4.33 using HCl,no effect
